In the NIST ThermoML archive (doi:10.1021/je049960h):
± gives the expanded uncertainty stated by the source.

Assay: xn = mol fraction of the nth substance listed
Settings: 101.3 kPa, Liquid; for viscosity: Capillary tube (Ostwald / Ubbelohde) method; for mass density: Pycnometric method; for thermal conductivity: Hot wire method

OCCCOCCCO [4-oxa-1,7-heptanediol] + O
Settings	mass density [kg/m3]	thermal conductivity [W/m/K]	viscosity [mPa·s]
293.4 K, x1 = 0.5	1034 ± 2	–	59.9 ± 1.2
293.9 K, x1 = 0.75	1028 ± 2	–	88.5 ± 2
295.05 K, x1 = 0.25	1040 ± 2	–	22.3 ± 0.5
297.8 K, x1 = 0.25	–	0.248 ± 0.005	–
297.9 K, x1 = 0.5	–	0.19 ± 0.004	–
298.4 K, x1 = 0.75	–	0.167 ± 0.003	–
313.05 K, x1 = 0.25	1026 ± 2	–	9.14 ± 0.19
313.05 K, x1 = 0.5	1019 ± 2	–	18.6 ± 0.4
313.05 K, x1 = 0.75	1013 ± 2	–	25.8 ± 0.6
323.9 K, x1 = 0.25	–	0.256 ± 0.005	–
324.8 K, x1 = 0.75	–	0.169 ± 0.003	–
324.9 K, x1 = 0.5	–	0.193 ± 0.004	–
333.1 K, x1 = 0.25	1010 ± 2	–	4.3 ± 0.09
333.1 K, x1 = 0.5	1003 ± 2	–	7.68 ± 0.16
333.1 K, x1 = 0.75	997 ± 2.1	–	9.71 ± 0.21
349.3 K, x1 = 0.5	–	0.195 ± 0.004	–
349.9 K, x1 = 0.25	–	0.26 ± 0.005	–
350.1 K, x1 = 0.75	–	0.167 ± 0.003	–
353.1 K, x1 = 0.25	992.8 ± 2	–	2.42 ± 0.05
353.1 K, x1 = 0.5	986 ± 2	–	3.89 ± 0.08
353.1 K, x1 = 0.75	980.5 ± 2	–	4.71 ± 0.1
368.25 K, x1 = 0.25	979.2 ± 2	–	1.72 ± 0.04
372.2 K, x1 = 0.5	969.5 ± 2	–	2.33 ± 0.05
372.2 K, x1 = 0.75	964.3 ± 2	–	2.73 ± 0.06
374 K, x1 = 0.25	–	0.264 ± 0.005	–
374.9 K, x1 = 0.5	–	0.196 ± 0.004	–
375.1 K, x1 = 0.75	–	0.169 ± 0.003	–
378.75 K, x1 = 0.25	–	–	1.41 ± 0.03
382.5 K, x1 = 0.5	960.1 ± 2	–	1.85 ± 0.04
382.5 K, x1 = 0.75	955.2 ± 2	–	2.14 ± 0.05
392.3 K, x1 = 0.75	946.2 ± 2	–	1.72 ± 0.04
392.4 K, x1 = 0.5	951 ± 2	–	1.53 ± 0.03
394.25 K, x1 = 0.5	949.4 ± 2	–	–
395.75 K, x1 = 0.5	–	–	1.45 ± 0.03
395.95 K, x1 = 0.25	953.1 ± 2	–	–
397.45 K, x1 = 0.25	–	–	0.983 ± 0.021
398.6 K, x1 = 0.25	–	0.263 ± 0.005	–
398.9 K, x1 = 0.5	–	0.195 ± 0.004	–
399 K, x1 = 0.75	–	0.169 ± 0.003	–
402.3 K, x1 = 0.75	936.9 ± 2	–	1.43 ± 0.03
405.35 K, x1 = 0.75	934.5 ± 2	–	–
406.85 K, x1 = 0.75	–	–	1.33 ± 0.03
407.85 K, x1 = 0.5	936.8 ± 1.9	–	–
408.35 K, x1 = 0.25	941.3 ± 1.9	–	–
410.85 K, x1 = 0.5	–	–	1.11 ± 0.02
411.35 K, x1 = 0.25	–	–	0.803 ± 0.017
418.35 K, x1 = 0.75	923 ± 1.9	–	–
421.35 K, x1 = 0.75	–	–	1.05 ± 0.02
423.8 K, x1 = 0.25	–	0.264 ± 0.005	–
424.3 K, x1 = 0.75	–	0.167 ± 0.003	–
424.4 K, x1 = 0.5	–	0.193 ± 0.004	–
426.35 K, x1 = 0.5	918.8 ± 1.9	–	–
426.75 K, x1 = 0.25	922.7 ± 1.9	–	–
429.35 K, x1 = 0.5	–	–	0.829 ± 0.017
429.75 K, x1 = 0.25	–	–	0.63 ± 0.013
437.25 K, x1 = 0.75	904.2 ± 1.9	–	–
440.25 K, x1 = 0.75	–	–	0.795 ± 0.017
444.65 K, x1 = 0.25	904.1 ± 1.9	–	–
445.25 K, x1 = 0.5	899.1 ± 1.9	–	–
447.65 K, x1 = 0.25	–	–	0.512 ± 0.011
448.25 K, x1 = 0.5	–	–	0.64 ± 0.014
448.8 K, x1 = 0.5	–	0.187 ± 0.004	–
448.9 K, x1 = 0.75	–	0.163 ± 0.003	–
455.15 K, x1 = 0.75	887.2 ± 1.9	–	–
458.15 K, x1 = 0.75	–	–	0.641 ± 0.014
